From patent US20230416275A1, “MODULATORS OF CYSTIC FIBROSIS TRANSMEMBRANE CONDUCTANCE REGULATOR” (VERTEX PHARMACEUTICALS INCORPORATED, priority 2020, published 2023)
pEC50: −log10 of the molar value.

Columns and labels:
[1] = molecular target: CFTR-mediated chloride transport in human intestinal epithelial enteroid cells (Homo sapiens, UniProt P13569); test: Membrane potential dye, Enteroid Assay A; format: cell-based; settings: for Ent. A Max Activity (%): % of chloride transport of triple combination control (3 μM N-[(6-amino-2-pyridyl)sulfonyl]-6-(3-fluoro-5-isobutoxy-phenyl)-2-[(4S)-2,2,4-trimethylpyrrolidin-1-yl]pyridine-3-carboxamide, 3 μM tezacaftor, 300 nM acute ivacaftor); for pEC50: enteroid cells, 18-24 hours incubation, acute 10 μM forskolin and 300 nM ivacaftor, read-out: Ent. A EC50
Method: Base medium (ADF+++) consisted of Advanced DMEM/Ham's F12, 2 mM Glutamax, 10 mM HEPES, […] penicillin/streptomycin.
Intestinal enteroid maintenance medium (IEMM) consisted of ADF+++, 1×B27 supplement, 1×N2 supplement, 1.25 mM N-acetyl cysteine, 10 mM Nicotinamide, 50 ng/mL hEGF, 10 nM Gastrin, 1 μg/mL hR-spondin-1, 100 ng/mL hNoggin, TGF-b type 1 inhibitor A-83-01, 100 μg/mL Primocin, 10 μM P38 MAPK inhibitor SB202190.
Bath 1 Buffer consisted of 1 mM MgCl2, 160 mM NaCl, 4.5 mM KCl, 10 mM HEPES, 10 mM Glucose, 2 mM CaCl2.
Chloride Free Buffer consisted of 1 mM Magnesium Gluconate, 2 mM Calcium Gluconate, 4.5 mM Potassium Gluconate, 160 mM Sodium Gluconate, 10 mM HEPES, 10 mM Glucose.
Bath1 Dye Solution consisted of Bath 1 Buffer, 0.04% Pluronic F127, 20 μM Methyl Oxonol, 30 μM CaCCinh-A01, 30 μM Chicago Sky Blue.
Chloride Free Dye Solution consisted of Chloride Free Buffer, 0.04% Pluronic F127, 20 μM Methyl Oxonol, 30 μM CaCCinh-A01, 30 μM Chicago Sky Blue.
Chloride Free Dye Stimulation Solution consisted of Chloride Free Dye Solution, 10 μM forskolin, 100 μM IBMX, and 300 nM Compound III.
Human intestinal epithelial enteroid cells were obtained from the Hubrecht Institute for Developmental Biology and Stem Cell Research, Utrecht, The Netherlands and expanded in T-Flasks as previously described (Dekkers J F, Wiegerinck C L, de Jonge H R, Bronsveld I, Janssens H M, de Winter-de Groot K M, Brandsma A M, de Jong N W M, Bijvelds M J C, Scholte B J, Nieuwenhuis E E S, van den Brink S, Clevers H, van der Ent C K, Middendorp S and M Beekman J M. A functional CFTR assay using primary cystic fibrosis intestinal organoids. Nat Med. 2013 July; 19(7):939-45).
c. Enteroid Cell Harvesting and Seeding
Cells were recovered in cell recovery solution, collected by centrifugation at 650 rpm for 5 minutes at 4° C., resuspended in TrypLE and incubated for 5 minutes at 37° C. Cells were then collected by centrifugation at 650 rpm for 5 minutes at 4° C. and resuspended in IEMM containing 10 μM ROCK inhibitor (RI). The cell suspension was passed through a 40 μm cell strainer and resuspended at 1×10^6 cells/mL in IEMM containing 10 μM RI. Cells were seeded at 5000 cells/well into multi-well plates and incubated for overnight at 37° C., 95% humidity and 5% CO2 prior to assay.
d. Membrane Potential Dye, Enteroid Assay A
Enteroid cells were incubated with test compound in IEMM for 18-24 hours at 37° C., 95% humidity and 5% CO2. […] Briefly, cells were washed 5 times in Bath 1 Buffer. Bath 1 Dye Solution was added, and the cells were incubated for 25 minutes at room temperature. Following dye incubation, cells were washed 3 times in Chloride Free Dye Solution. Chloride transport was initiated by addition of Chloride Free Dye Stimulation Solution and the fluorescence signal was read for 15 minutes. […] Chloride transport was then expressed as a percentage of the chloride transport following treatment with 3 μM N-[(6-amino-2-pyridyl)sulfonyl]-6-(3-fluoro-5-isobutoxy-phenyl)-2-[(4S)-2,2,4-trimethylpyrrolidin-1-yl]pyridine-3-carboxamide, 3 μM (R)-1-(2,2-difluorobenzo[d][1,3]dioxol-5-yl)-N-(1-(2,3-dihydroxypropyl)-6-fluoro-2-(1-hydroxy-2-methylpropan-2-yl)-1H-indol-5-yl)cyclopropanecarboxamide and 300 nM acute N-[2,4-bis(1,1-dimethylethyl)-5-hydroxyphenyl]-1,4-dihydro-4-oxoquinoline-3-carboxamide triple combination control (% Activity).

[2] = molecular target: T1, F508del in NIH 3T3 cells (Homo sapiens, UniProt P13569, DEL508-508); test: 3T3 assay: membrane potential optical assay for F508del correction; format: cell-based, mouse; settings: for pEC50: F508del NIH 3T3 cells, compound incubation 18-24 hours at 37° C., forskolin activation, read-out: 3T3 EC50; for Emax: NIH3T3, F508del NIH 3T3 cells, efficacy compared to lumacaftor in combination with acutely added 300 nM Ivacaftor, read-out: 3T3 Max Activity (%)
T1 construct: expressed in transfected cells
From the text: a. Membrane Potential Optical Methods for Assaying F508del Modulation Properties of Compounds
The assay utilizes fluorescent voltage sensing dyes to measure changes in membrane potential using a fluorescent plate reader (e.g., FLIPR III, Molecular Devices, Inc.) as a readout for increase in functional F508del in NIH 3T3 cells. The driving force for the response is the creation of a chloride ion gradient in conjunction with channel activation by a single liquid addition step after the cells have previously been treated with compounds and subsequently loaded with a voltage sensing dye.
b. Identification of Corrector Compounds
To identify correctors of F508del, a single-addition HTS assay format was developed. This HTS assay utilizes fluorescent voltage sensing dyes to measure changes in membrane potential on the FLIPR III as a measurement for increase in gating (conductance) of F508del in F508del NIH 3T3 cells. The F508del NIH 3T3 cell cultures were incubated with the corrector compounds at a range of concentrations for 18-24 hours at 37° C., and subsequently loaded with a redistribution dye. The driving force for the response is a Cl^− ion gradient in conjunction with channel activation with forskolin in a single liquid addition step using a fluorescent plate reader such as FLIPR III.
Bath Solution #1: (in mM) NaCl 160, KCl 4.5, CaCl2 2, MgCl2 1, HEPES 10, pH 7.4 with NaOH.
Chloride-free bath solution: Chloride salts in Bath Solution #1 (above) are substituted with gluconate salts.
NIH3T3 mouse fibroblasts stably expressing F508del are used for optical measurements of membrane potential. The cells are maintained at 37° C. in 5% CO2 and 90% humidity in Dulbecco's modified Eagle's medium supplemented with 2 mM glutamine, 10% fetal bovine serum, 1×NEAA, b-ME, 1× pen/strep, and 25 mM HEPES in 175 cm^2 culture flasks. For all optical assays, the cells were seeded at ˜20,000/well in 384-well Matrigel-coated plates. For the correction assays, the cells are cultured at 37° C. with and without compounds for 16-24 hours.

Chain of CFTR-mediated chloride transport in human intestinal epithelial enteroid cells (P13569 with tags, fused parts or gaps DEL508-508): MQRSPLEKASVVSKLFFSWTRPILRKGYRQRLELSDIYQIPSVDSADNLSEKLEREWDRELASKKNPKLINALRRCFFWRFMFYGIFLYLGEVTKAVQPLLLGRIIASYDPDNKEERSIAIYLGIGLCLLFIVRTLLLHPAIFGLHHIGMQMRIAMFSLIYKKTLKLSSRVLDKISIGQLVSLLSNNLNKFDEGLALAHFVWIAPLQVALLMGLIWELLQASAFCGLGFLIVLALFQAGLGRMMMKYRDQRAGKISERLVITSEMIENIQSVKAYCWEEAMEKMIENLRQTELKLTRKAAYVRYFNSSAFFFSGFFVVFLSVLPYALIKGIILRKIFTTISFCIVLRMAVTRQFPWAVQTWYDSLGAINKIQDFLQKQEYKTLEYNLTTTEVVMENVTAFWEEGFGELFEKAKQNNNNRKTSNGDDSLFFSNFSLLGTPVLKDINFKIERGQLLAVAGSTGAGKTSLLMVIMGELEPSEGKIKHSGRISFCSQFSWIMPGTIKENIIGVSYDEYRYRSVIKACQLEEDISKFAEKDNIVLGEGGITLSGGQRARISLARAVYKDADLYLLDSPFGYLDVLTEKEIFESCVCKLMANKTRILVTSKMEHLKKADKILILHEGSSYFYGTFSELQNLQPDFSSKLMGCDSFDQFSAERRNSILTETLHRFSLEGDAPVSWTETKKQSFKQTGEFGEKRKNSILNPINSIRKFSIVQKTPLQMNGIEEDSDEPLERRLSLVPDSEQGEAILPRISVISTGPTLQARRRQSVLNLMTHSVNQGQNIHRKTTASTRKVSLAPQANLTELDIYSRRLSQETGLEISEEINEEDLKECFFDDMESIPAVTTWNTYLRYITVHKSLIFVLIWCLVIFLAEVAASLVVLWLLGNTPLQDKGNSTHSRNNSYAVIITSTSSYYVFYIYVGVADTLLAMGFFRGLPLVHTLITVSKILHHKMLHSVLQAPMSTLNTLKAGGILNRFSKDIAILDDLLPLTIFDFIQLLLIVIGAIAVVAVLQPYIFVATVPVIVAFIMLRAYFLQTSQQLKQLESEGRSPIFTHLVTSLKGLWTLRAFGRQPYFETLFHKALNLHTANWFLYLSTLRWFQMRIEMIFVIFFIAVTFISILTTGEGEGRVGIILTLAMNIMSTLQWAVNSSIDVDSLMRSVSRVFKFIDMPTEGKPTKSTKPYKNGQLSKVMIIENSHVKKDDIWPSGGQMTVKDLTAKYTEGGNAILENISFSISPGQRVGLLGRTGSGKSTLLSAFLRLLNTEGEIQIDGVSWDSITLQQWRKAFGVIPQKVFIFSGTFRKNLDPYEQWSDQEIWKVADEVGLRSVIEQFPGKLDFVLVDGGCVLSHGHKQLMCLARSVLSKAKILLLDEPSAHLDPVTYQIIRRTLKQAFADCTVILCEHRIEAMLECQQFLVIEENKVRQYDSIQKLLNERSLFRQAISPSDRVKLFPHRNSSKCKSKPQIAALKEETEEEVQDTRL
T1 sequence (P13569 with tags, fused parts or gaps DEL508-508): as above

SMILES	pEC50 [1]	pEC50 [2]	Emax [2] [%]	Ent. A Max Activity (%) [1]
Cc1cccc(C)c1-c1cc2nc(n1)NS(=O)(=O)c1cccc(n1)NC(=O)C1CC(CN(CCC(C)(C)C3CC3)C1)O2 (centres unmarked) [Compound 15, 5-(3-Cyclopropyl-3-methylbutyl)-19-(2,6-dimethylphenyl)-2-oxa-15λ^6-thia-5,9,16,18,21,22-hexaazatetracyclo[15.3.1.13,7.110,14]tricosa-1(21),10,12,14(22),17,19-hexaene-8,15,15-trione]	> 6.00	> 6.00	> 60	++ (++ is 30-60%)
Cc1cccc(C)c1-c1cc2nc(n1)NS(=O)(=O)c1cccc(c1)NC(=O)[C@@H]1C[C@@H](CN(CCC(C)(C)C)C1)O2 [Compound 5, (3S,7R)-5-(3,3-Dimethylbutyl)-19-(2,6-dimethylphenyl)-2-oxa-15λ^6-thia-5,9,16,18,21-pentaazatetracyclo[15.3.1.13,7.110,14]tricosa-1(20),10,12,14(22),17(21),18-hexaene-8,15,15-trione]	> 6.00	> 6.00	> 60	+++ (+++ is >60%)
Cc1cccc(C)c1-c1cc2nc(n1)NS(=O)(=O)c1cccc(c1)NC(=O)[C@H]1C[C@@H](CN(C(=O)NC(C)(C)C)C1)O2 [Compound 42]		4.52 to 5.52	> 60	+ (+ is <30%)
Cc1cccc(C)c1-c1cc2nc(n1)NS(=O)(=O)c1cccc(c1)NC(=O)[C@H]1C[C@H](CN(C(=O)OC(C)(C)C)C1)O2 (single isomer, unassigned) [Compound 1]		> 6.00	30 to 60	+ (+ is <30%)
Cc1cccc(C)c1-c1cc2nc(n1)NS(=O)(=O)c1cccc(c1)NC(=O)[C@@H]1C[C@@H](CN(CCCCC(C)(C)C)C1)O2 [Compound 21]	> 6.00	> 6.00	> 60	++ (++ is 30-60%)
Cc1cccc(C)c1-c1cc2nc(n1)NS(=O)(=O)c1cccc(c1)NC(=O)[C@H]1C[C@H](CN(C(=O)NC(C)(C)C)C1)O2 [Compound 43]		4.52 to 5.52	> 60	+ (+ is <30%)
Cc1cccc(C)c1-c1cc2nc(n1)NS(=O)(=O)c1cccc(c1)NC(=O)[C@H]1C[C@H](CN1C(=O)OC(C)(C)C)O2 [Compound 79]				+ (+ is <30%)
Cc1cccc(C)c1-c1cc2nc(n1)NS(=O)(=O)c1cccc(c1)NC(=O)[C@@H]1C[C@@H](CN(CCCC(C)(C)C)C1)O2 [Compound 22]	> 6.00			++ (++ is 30-60%)
Cc1cccc(C)c1-c1cc2nc(n1)NS(=O)(=O)c1cccc(c1)NC(=O)C1CC(O2)C(C)(C)N(Cc2ccccc2)C1 (single isomer, unassigned) [Compound 74, 5-benzyl-19-(2,6-dimethylphenyl)-4,4-dimethyl-2-oxa-15λ^6-thia-5,9,16,18,21-pentaazatetracyclo[15.3.1.13,7.110,14]tricosa-1(21),10,12,14(22),17,19-hexaene-8,15,15-trione]				+ (+ is <30%)
CCCCCCN1C[C@@H]2C[C@H](C1)C(=O)Nc1cccc(c1)S(=O)(=O)Nc1nc(cc(-c3c(C)cccc3C)n1)O2 [Compound 41]	> 6.00			+++ (+++ is >60%)
COC(=O)N1C[C@@H]2C[C@H](C1)C(=O)Nc1cccc(c1)S(=O)(=O)Nc1nc(cc(-c3c(C)cccc3C)n1)O2 [Compound 32]	5.52 to 6.00			+++ (+++ is >60%)
CCCCN1C[C@@H]2C[C@H](C1)C(=O)Nc1cccc(c1)S(=O)(=O)Nc1nc(cc(-c3c(C)cccc3C)n1)O2 [Compound 40]	> 6.00			++ (++ is 30-60%)

Continued, in another order:

pEC50 [1]	pEC50 [2]	Emax [2] [%]	SMILES	Ent. A Max Activity (%) [1]
4.52 to 5.52	> 6.00	> 60	Cc1ccc2cc1C(=O)Nc1cccc(c1)S(=O)(=O)Nc1nc(cc(-c3c(C)cccc3C)n1)O2 [Compound 111]	++ (++ is 30-60%)
4.52 to 5.52	> 6.00	> 60	Cc1cccc(C)c1-c1cc2nc(n1)NS(=O)(=O)c1cccc(c1)NC(=O)c1cccc(c1)O2 [Compound 53, 5-(2,6-Dimethylphenyl)-9,9-dioxo-2-oxa-9λ^6-thia-6,8,15,23-tetraazatetracyclo[15.3.1.13,7.110,14]tricosa-1(20),3,5,7(23),10(22),11,13,17(21),18-nonaen-16-one]	+++ (+++ is >60%)
> 6.00	> 6.00	> 60	Cc1cccc(C)c1-c1cc2nc(n1)NS(=O)(=O)c1cccc(c1)NC(=O)C1CC(CN(C(=O)OC(C)(C)C)C1)O2 (centres unmarked) [Compound 123]	++ (++ is 30-60%)
5.52 to 6.00	> 6.00	> 60	Cc1cccc(C)c1-c1cc2nc(n1)NS(=O)(=O)c1cccc(c1)NC(=O)c1cc(Cl)cc(c1)O2 [Compound 118]	+++ (+++ is >60%)
		< 30	Cc1cccc(C)c1-c1cc2nc(n1)NS(=O)(=O)c1cccc(c1)NC(=O)[C@@H]1CNC[C@@H](C1)O2 [Compound 50]	+ (+ is <30%)
> 6.00	> 6.00	> 60	Cc1ccc2cc1Oc1cc(-c3c(C)cccc3C)nc(n1)NS(=O)(=O)c1cccc(c1)NC2=O [Compound 57, 5-(2,6-Dimethylphenyl)-20-methyl-2-oxa-9λ^6-thia-6,8,15,23-tetraazatetracyclo[15.3.1.13,7.110,14]tricosa-1(21),3(23),4,6,10,12,14(22),17,19-nonaene-9,9,16-trione]	++ (++ is 30-60%)
